A value given as a limit tells only on which side of the number the result lay.

The record followed here is ChEMBL document CHEMBL3132812, “Metabolism-guided drug design” (Medchemcomm, 2013).

Data set [1] is described as follows: Lipophilicity, log D of the compound at pH 7.4. The format is physicochemical. To be noted: buffer.
Another data set deals with Trypsin (Homo sapiens, UniProt P07477+P07478+P35030). As to the kind of experiment: Inhibition of trypsin (unknown origin). The format is protein assay.
Another data set deals with Prothrombin (Homo sapiens, UniProt P00734). As to the kind of experiment: Inhibition of thrombin (unknown origin).
Data set [2] can be described thus: Drug metabolism in rat liver microsomes assessed as oxidative deamination. The format is ADME. The settings on record: read-out: Drug metabolism. In general terms: Liver microsomes are a subcellular fraction often used to study metabolism.
The nature of data set [3]: Drug metabolism in rat liver microsomes assessed as N-demethylation. The format is ADME. The settings on record: read-out: Drug metabolism.
A short description of data set [4]: Drug metabolism in rat liver microsomes assessed as O-demethylation. To be noted: read-out: Drug metabolism. The format is ADME.
The nature of data set [5]: Half life in monkey. The format is ADME, organism-based, Macaca mulatta. The settings on record: rhesus monkey, in vivo.
In data set [6] the test system is Homo sapiens. In words: In vivo inhibition of CYP2D6 in patient assessed as inhibition of dextromethorphan to dextrorphan conversion at 20 to 40 mg, qd relative to control. The format is ADME, organism-based.
The nature of data set [7]: Drug metabolism in human. The format is ADME, organism-based. To be noted: in vivo, read-out: Drug metabolism.
Data set [8] deals with Homo sapiens. In words: In vivo inhibition of CYP2D6 in patient at 20 mg, qd relative to control. The format is ADME, organism-based.
A short description of data set [9]: Half life in rat. The format is ADME, organism-based. The settings on record: in vivo.
A short description of data set [10]: Half life in human plasma at 600 mg, po. The format is ADME, organism-based.

What is called logD is lipophilicity at a set pH, counting ionised and neutral species. As for `CNS(=O)(=O)Cc1ccc2[nH]cc(CCN(C)C)c2c1`, in [1], the logD was -1.7. As a reminder, the IC50 is the midpoint of a concentration-inhibition curve. On Trypsin, `Cc1cnc(NCC(F)(F)c2ccccn2)c(=O)n1CC(=O)NCc1ncccc1F` came in with an IC50 of 252 nM. For the compound `N#Cc1cnc(NCC(F)(F)c2ccccn2)c(=O)n1CC(=O)NCc1ncccc1F`, the figures for the IC50 at Prothrombin and on Trypsin were 2.3 nM and 213 nM, respectively. `Cc1nc(N)ccc1CNC(=O)Cn1c(C)cnc(NCC(F)(F)c2ccccn2)c1=O` registered an IC50 against Trypsin of 800 nM. On to `COc1ccc([C@H]2Cc3c(cccc3C(F)(F)F)N(CCN(C)C)C(=O)[C@H]2OC(C)=O)cc1`, for which the metabolised in [2] came out at 53%; in [3] it was 31%; in data set [4] it was 8%. Broadly, the half-life is the time needed for the level to fall by half in the phase considered. Take `CC(c1ccoc1)N(O)C(N)=O` (stereo not drawn): the half-life in data set [5] was 3.1 h. With `[3H]C1([3H])Oc2ccc(OC[C@@H]3CNCC[C@H]3c3ccc(F)cc3)cc2O1`, in the data set with Homo sapiens [6], the “inhibition (INH)” value is reported as 15%. With `[3H]C([3H])([3H])Oc1ccc(C(CN(C([3H])([3H])[3H])C([3H])([3H])[3H])C2(O)CCCCC2)cc1` (stereo not drawn), in data set [7], the metabolised is 50%. The compound `C[C@H](C#Cc1ccc(Oc2ccc(F)cc2)o1)N(O)C(N)=O` showed a half-life in data set [5] of 7.4 h. As to `Cc1nc(N)ccc1CNC(=O)Cn1c(C)cnc(NCCc2ccccc2)c1=O` [L-375378], the IC50 at Prothrombin was 0.8 nM; on Trypsin it was 1800 nM. Take `Fc1ccc([C@@H]2CCNC[C@H]2COc2ccc3c(c2)OCO3)cc1` [PAROXETINE]: in the data set on Homo sapiens [8], the “inhibition (INH)” value stood at 55%.

Take `CS(=O)(=O)c1ccc(-n2nc(C(F)(F)F)cc2-c2ccc(F)cc2)cc1` [SC-58125]: the half-life in data set [9] was greater than 220 h.

Take `CC(c1cc2ccccc2s1)N(O)C(N)=O` (stereo not drawn) [ZILEUTON]: the figures for the half-life in [10] and in data set [5] were 3 h and less than 1 h, respectively.
